According to ChEMBL document CHEMBL5143517, “Discovery and radiosensitization research of ursolic acid derivatives as SENP1 inhibitors” (Eur J Med Chem, 2022):
Active and inactive are the calls of the source.

Columns and labels:
HeLa [1] = test: Radiosensitizing activity against human HeLa cells assessed as average lethal dose at 5 uM pretreated for 24 hrs followed by exposure to 2 to 8 Gy gamma irradiation and measured after 2 weeks by crystal violet staining based analysis (reference value: 1.47 Gy); format: functional
[2] = Cytotoxicity against human HeLa cells assessed as inhibition of cell growth incubated for 72 hrs by CCK-8 assay; format: toxicity, cell-based
HeLa [3] = test: Radiosensitizing activity against human HeLa cells assessed as quasi-threshold dose at 5 uM pretreated for 24 hrs followed by exposure to 2 to 8 Gy gamma irradiation and measured after 2 weeks by crystal violet staining based analysis (reference value: 1.72 Gy); format: functional
HeLa [4] = test: Radiosensitizing activity against human HeLa cells assessed as reduction in cell survival fractions at 5 uM pretreated for 24 hrs followed by exposure to 4 to 8 Gy gamma irradiation and measured after 2 weeks by crystal violet staining based analysis; format: functional
HeLa [5] = test: Radiosensitizing activity against human HeLa cells assessed as radiosensitization enhancement ratio at 5 uM pretreated for 24 hrs followed by exposure to 2 to 8 Gy gamma irradiation and measured after 2 weeks by crystal violet staining based analysis (reference value: 1); format: functional
[6] = molecular target: T1, Sentrin-specific protease 1 (Homo sapiens, UniProt Q9P0U3); test: Inhibition of recombinant human SENP1 catalytic domain using RanGAP1 as substrate preincubated for 10 mins followed by substrate addition and measured after 30 mins by Western blot analysis
T1 sequence (Q9P0U3 whole entry): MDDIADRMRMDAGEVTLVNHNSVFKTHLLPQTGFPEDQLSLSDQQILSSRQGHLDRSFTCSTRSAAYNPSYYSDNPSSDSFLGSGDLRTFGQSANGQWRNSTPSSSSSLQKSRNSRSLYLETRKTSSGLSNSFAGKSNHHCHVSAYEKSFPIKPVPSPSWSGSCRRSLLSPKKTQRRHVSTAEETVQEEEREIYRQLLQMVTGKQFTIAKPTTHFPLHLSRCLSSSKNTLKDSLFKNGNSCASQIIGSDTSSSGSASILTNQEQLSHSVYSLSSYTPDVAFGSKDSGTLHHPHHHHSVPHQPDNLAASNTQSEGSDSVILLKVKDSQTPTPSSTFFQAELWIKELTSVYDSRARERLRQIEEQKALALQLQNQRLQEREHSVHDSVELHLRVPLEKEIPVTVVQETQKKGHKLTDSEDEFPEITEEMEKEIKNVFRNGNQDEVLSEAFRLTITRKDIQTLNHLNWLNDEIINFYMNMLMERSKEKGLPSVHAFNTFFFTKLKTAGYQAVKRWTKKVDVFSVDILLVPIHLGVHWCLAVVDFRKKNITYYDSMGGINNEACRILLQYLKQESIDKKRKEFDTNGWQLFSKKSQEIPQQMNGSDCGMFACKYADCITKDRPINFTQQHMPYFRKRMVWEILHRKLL

Row | SMILES | LD (HeLa [1]) [Gy] | IC50 at 72 h [2] [µM] | LD (HeLa [3]) [Gy] | Activity (HeLa [4]) | Ratio (HeLa [5]) | IC50 [6] [µM]
1 | CNC(=O)CNC(=O)[C@]12CC[C@@H](C)[C@H](C)[C@H]1C1=CC[C@@H]3[C@@]4(C)CC[C@H](O)C(C)(C)[C@@H]4CC[C@@]3(C)[C@]1(C)CC2 | 1.02 | > 20 | 1.92 | Active | – | –
2 | C[C@H]1[C@H](C)CC[C@]2(C(=O)O)CC[C@]3(C)C(=CC[C@@H]4[C@@]5(C)CC[C@H](O)C(C)(C)[C@@H]5CC[C@]43C)[C@H]12 [URSOLIC ACID] | 1.2 | – | 1.77 | Active | 1.22 | 2.58
3 | C[C@H]1[C@H](C)CC[C@]2(C(=O)OCC(=O)O)CC[C@]3(C)C(=CC[C@@H]4[C@@]5(C)CC[C@H](O)C(C)(C)[C@@H]5CC[C@]43C)[C@H]12 | 1.26 | > 20 | 2.07 | Active | – | –
4 | C[C@H]1[C@H](C)CC[C@]2(C(=O)N3CCC[C@H]3C(=O)O)CC[C@]3(C)C(=CC[C@@H]4[C@@]5(C)CC[C@H](O)C(C)(C)[C@@H]5CC[C@]43C)[C@H]12 | – | > 20 | – | – | – | –
5 | COC(=O)COC(=O)[C@]12CC[C@@H](C)[C@H](C)[C@H]1C1=CC[C@@H]3[C@@]4(C)CC[C@H](O)C(C)(C)[C@@H]4CC[C@@]3(C)[C@]1(C)CC2 [3BETA-HYDROXY-URS-12-EN-28-METHYL ACETOACETATE] | – | > 20 | – | – | – | –
6 | C[C@H]1[C@H](C)CC[C@]2(C(=O)OCCN3CCN(CCO)CC3)CC[C@]3(C)C(=CC[C@@H]4[C@@]5(C)CC[C@H](O)C(C)(C)[C@@H]5CC[C@]43C)[C@H]12 | – | > 20 | – | – | – | –
7 | C[C@H]1[C@H](C)CC[C@]2(C(=O)NCC(=O)NCC(O)CO)CC[C@]3(C)C(=CC[C@@H]4[C@@]5(C)CC[C@H](O)C(C)(C)[C@@H]5CC[C@]43C)[C@H]12 (some centres not stated) | – | > 20 | – | – | – | –
